Among the data in ChEMBL document CHEMBL4229420, “ROCK inhibitors 2. Improving potency, selectivity and solubility through the application of rationally designed solubilizing groups” (Bioorg Med Chem Lett, 2018) are solubility values, retold here.

Values after ≈ are worked out from the molar mass of the structure shown. A value given as a limit tells only on which side of the number the result lay.

A short description of the data set: Solubility of the compound in pH 7.4 phosphate buffer. The data set is classed as physicochemical.
The mark [1] stands for this setting: phosphate buffer, read-out: solubility.

With `COc1cccc(CC(=O)Nc2nc(-c3ccncc3)cs2)c1`, the solubility under setting [1] was 22 µM (≈ 7.16 µg/mL). As for `CN1CCC(CCCOc2cccc(CC(=O)Nc3nc(-c4ccncc4)cs3)c2)CC1`, the solubility under setting [1] is > 200 µM. On the same count and under the same terms, in the case of `O=C(Cc1cccc(OCCN2CCNCC2)c1)Nc1nc(-c2ccncc2)cs1` it was > 200 µM. Turning to `CN1CCN(CCCOc2cccc(CC(=O)Nc3nc(-c4ccncc4)cs3)c2)CC1`, under “buffer”, the solubility is > 200 µM. For `O=C(Cc1cccc(OCCCN2CCOCC2)c1)Nc1nc(-c2ccncc2)cs1`, under setting [1], the solubility was > 200 µM. Take `CN1CCN(CCOc2cccc(CC(=O)Nc3nc(-c4ccncc4)cs3)c2)CC1`: the solubility under setting [1] was > 200 µM. For `O=C(Cc1cccc(OCCN2CCCCC2)c1)Nc1nc(-c2ccncc2)cs1`, the solubility under setting [1] is > 200 µM.

`O=C(Cc1cccc(OCCCN2CCNCC2)c1)Nc1nc(-c2ccncc2)cs1`: under setting [1], the solubility was > 200 µM. With `O=C(Cc1cccc(OCCN2CCOCC2)c1)Nc1nc(-c2ccncc2)cs1`, the solubility under setting [1] is > 200 µM. Turning to `O=C(Cc1cccc(OCCCN2CCCCC2)c1)Nc1nc(-c2ccncc2)cs1`, the solubility under setting [1] is > 200 µM.

With `O=C(Cc1cccc(OCCCC2CCNCC2)c1)Nc1nc(-c2ccncc2)cs1`, the solubility (buffer) was > 200 µM.

In general, solubility refers to the concentration that dissolves in the medium under given conditions.
